From ChEMBL document CHEMBL1142633, “A cytotoxic lobane diterpene from the formosan soft coral Sinularia inelegans” (2000)
≈ marks a conversion by molar mass, not a printed value.

How the values were obtained:
[1] = tested on: A549; assay: Cytotoxicity against human A549 cells; assay type: functional
[2] = tested on: P388; assay: Cytotoxicity against mouse P388 cells; assay type: functional

Q: Which GI50 [1] does the source give for `C=C[C@@]1(C)CC[C@H](/C(C)=C\CCC(=C)C)C[C@@H]1C(=C)C` [INELEGANENE] here?
A: 3.63 µg/mL (≈ 13.3 µM)

Q: And the GI50 [2]?
A: 0.2 µg/mL (≈ 0.734 µM)
